Experimental data reported in US10857102B2, “Therapeutic compositions comprising rilpivirine HCL and tenofovir disoproxil fumarate” (priority 2010, dated 2020).

Experiment: Rilpivirine dissolution rate (laboratory data, FIG. 9)
Type: physicochemical
Text: Formulation 3 and Formulation 4 differ in the weight of extragranular excipients and in the amount of croscarmellose sodium present. […] It may be postulated that the higher amounts of diluents in the rilpivirine layer of Formulation 3 that was bioequivalent to the rilpivirine single agent reference tablet could have served to lessen the extent of contact and interactions between rilpivirine and emtricitabine and/or tenofovir DF and achieve bioequivalence.
In addition, the higher amount of croscarmellose sodium, a superdisintegrant, leads to faster layer disintegration and separation of the rilpivirine layer from the emtricitabine/tenofovir DF layer minimizing any potential interactions between rilpivirine with emtricitabine and/or tenofovir DF. […] This is possibly due to the basifying nature of this excipient.

In the case of `Cc1cc(/C=C/C#N)cc(C)c1Nc1ccnc(Nc2ccc(C#N)cc2)n1.Cl` [rilpivirine, Rilpivirine HCl], the rilpivirine dissolution rate (higher concentrations of croscarmellose sodium in the rilpivirine layer, FIG. 9) is reported as “decreased” and the “intrinsic dissolution rate of rilpivirine” value (in the presence of emtricitabine and/or tenofovir DF) is reported as “increased”.
